Assays:
I.ENTPD5 = target: T1, I.ENTPD5 (Homo sapiens, UniProt O75356); test: Malachite Green (MG) assay for free phosphate; type: biochemical
T1 construct: His8 (C); made in house; host or cells: Hi-5 insect cells (baculovirus amplified in SF9)
T1 sequence (O75356 44-428): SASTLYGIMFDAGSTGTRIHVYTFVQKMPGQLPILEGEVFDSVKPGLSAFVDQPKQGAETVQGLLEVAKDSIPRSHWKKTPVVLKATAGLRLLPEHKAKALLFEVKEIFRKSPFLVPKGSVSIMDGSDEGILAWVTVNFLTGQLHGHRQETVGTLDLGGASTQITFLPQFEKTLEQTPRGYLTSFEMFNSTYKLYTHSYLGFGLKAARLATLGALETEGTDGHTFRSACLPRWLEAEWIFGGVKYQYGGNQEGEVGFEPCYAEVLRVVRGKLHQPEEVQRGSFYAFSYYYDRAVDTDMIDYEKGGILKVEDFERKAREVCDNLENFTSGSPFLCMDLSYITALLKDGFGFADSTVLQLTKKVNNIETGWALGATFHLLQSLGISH
Procedure: Malachite Green (MG) assay for free phosphate was used to directly test ENTPD5 activity. Standard curves for each preparation of malachite green were generated using known amounts of free phosphate. Reactions were carried out at room temperature in 1-mL cuvettes and OD 630 nm measurements were performed on a Nanodrop 2000c. ENTPD5 assays were initiated by adding UDP (100 μM final concentration) to a cuvette containing 800 μL of ENTPD5 (10 ng) in reaction buffer (250 mM NaCl, 5 mM MgCl2, 25 mM Tris-HCl pH 8.5). After 5 minutes, the reaction was quenched with 200 μL of MG buffer (13.1% (v/v) Concentrated sulfuric acid, 2.64 mM malachite green, 1.4% (w/v) ammonium molybdate, and 0.17% (v/v) Tween 20) and mixed by pipet. The OD 630 nm was measured after an additional 5-minute incubation. IC50 values were calculated by GraphPad Prism 6 using sigmoidal interpolation model with 95% confidence intervals. Using I.ENTPD5, the five hits compounds were validated in the malachite green (MG) assay, which directly measures free phosphate, a product of ENTPD5 activity.

[1] = target: T2, B.ENTPD5 (human ENTPD5 44–428) (Homo sapiens, UniProt O75356); test: coupled enzyme (ENTPD5/UMPK/luciferase) HTS assay; type: biochemical; details: for inhibition at 20 µM: HTS, 20 μM compound, duplicate, read-out: Percent ENTPD5 inhibition; for IC50: compounds at 5, 10, 20 and 40 μM, coupled enzyme HTS assay
T2 construct: bacterial codon-optimized human ENTPD5 44–428 (B.ENTPD5); His8 (C); made in house; host or cells: E. coli C41(DE3)
T2 sequence (O75356 44-428): T1 sequence (O75356 44-428)
Procedure: Stocks of purified B.ENTPD5, UMPK, and luciferase were diluted to 0.4 mg/mL, 1.2 mg/mL, 4.5 mg/mL, respectively, in 250 mM NaCl, 25 mM Tris-HCl pH 8.5, 5 mM MgCl2, 0.1 mg/mL BSA, and 5 mM DTT and flash frozen. To prepare enzyme mix solution for HTS, ENTPD5 (1 ng/μL final concentration) and UMPK (3.5 ng/μL) were diluted in HTS buffer (250 mM NaCl, 25 mM Tris-HCl pH 7.7, 5 mM MgCl2, 5 mM DTT, 0.1 mg/mL BSA, and 0.01% Triton X-100). An ENTPD5 null mix was made as above without ENTPD5 to provide maximal signal mimicking 100% inhibition. Substrate mix solution consisted of ATP (625 μM) and UDP (150 μM) in HTS buffer. Developer solution consisted of Luciferase (50 ng/μL) and D-luciferin (1.6 mM) in HTS buffer. All solutions were stored at 4°C, and equilibrated to room temperature prior to screening. All steps of ENTPD5 HTS were performed at room temperature in duplicate 384-well plates. For each run, 40 μL of enzyme solution (or ENTPD5 null mix) was added to each well of a 384 well plate. 0.1 μL of 10 mM compound (in 100% DMSO) from a 25,000 subset of the Chembridge DiverSet library or DMSO alone were added to wells by pin tool (V&P Scientific). Following a 10-minute incubation, the reaction was initiated with 10 μL of substrate mix (final concentrations: 40 ng/50 μL ENTPD5, 140 ng/50 μL UMPK, 125 μM ATP, 30 μM UDP, 20 μM test compound). Assay plates were shaken at 1500 rpm for 30 seconds and then incubated for 1h. Following incubation, 10 μL of developer solution was added to each well (final concentrations: 500 ng/60 μL luciferase, 266 μM D-luciferin). The plate was shaken for 30 seconds and incubated for 30 minutes. Luminescence readings were performed on a Tecan Infinite […] with automatic attenuation settings and 100 ms integration time. Hits and hit analogs were (re)purchased from Chembridge for SAR studies. Compounds were assayed at 5 μM, 10 μM, 20 μM, and 40 μM using the assay described above. To discover ENTPD5 inhibitors, a coupled enzyme assay was developed for high-throughput screening. The ENTPD5 reaction (UDP ➔ UMP + Pi) was coupled with uridine monophosphate kinase's (UMPK) reaction with UMP (UMP + ATP ➔ UDP + ADP) to create a futile catalytic cycle consuming ATP (Fig 3A). After one hour, the residual ATP was measured with firefly luciferase. UMPK concentrations were chosen to ensure ENTPD5, not UMPK, was rate-limiting. The ATP concentration was chosen to maximize signal with no ENTPD5 present, and the reaction time was optimized to remain in the linear range of the assay. Initial UDP concentration was chosen to allow for multiple turnover events on a single molecule in the cycle. Due to the availability of higher yields of the bacterially produced enzyme, B.ENTPD5 was used for HTS and subsequent structure activity relationship studies. 21,000 compounds were screened in duplicate at 20 μM. The average Z' value of the 132-plate screen was 0.73, indicating a robust assay. Five compounds producing >25% reproducible inhibition of ENTPD5 activity were selected for further analysis (0.02% hit rate) (Fig 3B and 3C).

[2] = tested on: O-glycan levels in LNCaP cells; test: Western blot for total O-glycosylation, LNCaP; type: cell-based; details: 10 μM, 24h, immunoblot
Procedure: (§1) LNCaP, DU145, PC3, and RWPE-1 cells were treated with 10 μM compound or DMSO control. 24h post-treatment, cells were washed with ice cold PBS, scraped, pelleted and stored at -80°C until use. Frozen cell pellets were lysed with lysis buffer consisting of 20 mM HEPES pH. 7.4, 150 mM NaCl, 1% Triton X-100, 1 mM EGTA, 1 mM EDTA, 10 mM sodium pyrophosphate, 100 mM NaF, 5 mM iodoacetic acid, 20 nM okadaic acid, 0.2 mM phenylmethylsulfonyl flouride (PMSF), and complete protease inhibitor cocktail tablets (Roche Diagnostics). Samples containing 50 μg of protein were suspended in SDS loading buffer, separated on 4–12% SDS polyacrylamide gels (GenScript #M41215) and electrotransferred to PVDF membranes (Millipore Immobilon-FL #IPFL00010). Precision Plus Protein Standards all blue (Bio-Rad 161–0373) were included as molecular weight markers. Immunoblotting was performed using standard methods, with TBS-T and TBS-T with 5% BSA as the wash and blocking/primary antibody dilution solutions, respectively. Total protein was measured with Ponceau-S staining prior to probing with antibodies. Membranes were incubated overnight at 4°C with primary antibodies diluted 1:1000 unless noted otherwise. […] Western blot quantification was normalized to total protein levels and analyzed in ImageStudio (LI-COR).

[3] = tested on: O-glycan levels in DU145 cells; test: Western blot for total O-glycosylation, DU145; type: cell-based; details: DU145, 10 μM, 24h, immunoblot
Procedure: as §1

LNCaP cells = test: Growth inhibition assay, LNCaP; type: cell-based; details: Homo sapiens, 48 h, 48h treatment, cell count normalized to DMSO
Procedure: LNCaP (ATCC CFL-1740), DU-145 (ATCC HTB-81), and PC3 (ATCC CRL-1435) cell lines were cultivated in a humid atmosphere (5% CO2, 37°C) using RPMI 1640 with L-glutamine (10-040-CV Corning) media supplemented with 10% FBS (SH30910.03 Hyclone) and 1x penicillin-streptomycin solution (Invitrogen). RWPE-1 (ATCC CRL-11609) was cultivated in a humid atmosphere (5% CO2, 37°C) using Keratinocyte Serum Free Medium (K-SFM Kit 17005–042 GIBCO) supplemented with bovine pituitary extract, epidermal growth factor (provided with K-SFM Kit), and 1x penicillin-streptomycin solution (Invitrogen). All cell lines were analyzed by STR (Short Tandem Repeat) and confirmed to match to corresponding STR profile data from the Global Bioresource Center ATCC or ExPASy Cellosaurus database. All cell lines were verified to be mycoplasma free.
5,000 cells were plated on day 0 in a 96-well plate. On day 1, before treatment, each well was imaged and direct cell counting was performed using a Celigo S (Nexcelom) imager and automatic cell counting software provided with the instrument. Compounds were added to final concentrations of 0.15 μM- 20 μM. 48 hours after treatment, wells were re-imaged and counted using the pre-treatment counting procedure. Growth was reported as the fold increase over the baseline measurement and normalized to DMSO controls. Experiments were performed in triplicate, in three separate experiments. […]

[4] = substrate UDP, purified I.ENTPD5, Michaelis-Menten

Row | Compound | inhibition at 20 µM [1] | IC50 [1] | also measured
1 | O=S(=O)(Nc1cc(-c2c(O)ccc3ccccc23)c(O)c2ccccc12)c1ccc(Cl)cc1 [Compound 2i] | – | > 100 µM | –
2 | Cc1cc(C)c(C)c(S(=O)(=O)Nc2ccc(O)c(-c3c(O)ccc4ccccc34)c2)c1C [Compound 2b] | 48% | 3.7 ± 0.4 µM | inhibition of I.ENTPD5 (hit validation) (I.ENTPD5; MG assay): dose-dependent inhibition
3 | Cc1ccc(S(=O)(=O)Nc2cc(-c3c(O)ccc4ccccc34)c(O)c3ccccc23)cc1 [Compound 2h] | – | > 100 µM | –
4 | O=C1NC(c2ccccc2OCc2ccccc2)Nc2ccccc21 (stereo not drawn) [Compound 4] | 28% | – | inhibition of I.ENTPD5 (hit validation) (I.ENTPD5; MG assay): dose-dependent inhibition
5 | CC(C)(C)c1ccc(S(=O)(=O)Nc2ccc(O)c(-c3c(O)ccc4ccccc34)c2)cc1 [Compound 2f] | – | – | O-glycan level [2]: inability of compound 2f to reduce O-glycan levels; IC50 (I.ENTPD5; MG assay, expanded concentration range, 100 μM UDP): 1.54 µM; O-glycan level [3]: inability of compound 2f to reduce O-glycan levels; EC50 (LNCaP cells): > 10 µM
6 | O=S(=O)(Nc1ccc(O)c(-c2c(O)ccc3ccccc23)c1)c1ccccc1 [Compound 2c] | – | 6.8 ± 1 µM | –
7 | CCC(=O)N1c2ccccc2C(N(C(=O)c2ccccc2)c2ccccc2)CC1C (stereo not drawn) [Compound 3] | 47% | – | –
8 | O=c1ccn([C@@H]2O[C@H](COP(=O)(O)OP(=O)(O)O)[C@@H](O)[C@H]2O)c(=O)[nH]1 [UDP, reference compound] | – | – | Km (I.ENTPD5; [4]): 480 ± 111 µM; kcat (I.ENTPD5; [4]): 783 ± 68 s⁻¹

More lines, main results first:

Row | inhibition at 20 µM [1] | IC50 [1] | Compound | also measured
9 | 35% | 6.7 ± 0.7 µM | O=S(=O)(Nc1ccc(O)c(-c2c(O)ccc3ccccc23)c1)c1ccc(Cl)cc1 [Compound 2a] | inhibition of I.ENTPD5 (hit validation) (I.ENTPD5; MG assay): dose-dependent inhibition
10 | – | 8.3 ± 1 µM | O=S(=O)(Nc1ccc(O)c(-c2c(O)ccc3ccccc23)c1)c1ccc(Br)cc1 [Compound 2g] | –
11 | – | 4.3 ± 2.2 µM | CCc1ccc(S(=O)(=O)Nc2ccc(O)c(-c3c(O)ccc4ccccc34)c2)cc1 [Compound 2e] | –
12 | – | 7.1 ± 1.6 µM | Cc1ccc(S(=O)(=O)Nc2ccc(O)c(-c3c(O)ccc4ccccc34)c2)cc1 [Compound 2d] | –

From publication PMC6594577, “Identifying small molecule probes of ENTPD5 through high throughput screening” (PLoS ONE, 2019)
